In patent US9833497B2, “Human originated EGF domain proteins and use of the same” (CHENGDU SOURCEBIO LIMITED-LIABILITY COMPANY, priority 2013, dated 2017):

Experiments:
Assay type in all cases: cell-based
E. coli DH5α = experiment: Antibacterial activity: MIC and growth curve against E. coli DH5α in 96-well plate; conditions: minimal inhibitory concentration against E. coli DH5α; 96-well plate, 5×10^5 CFU/mL, 37° C., judged after 8 h
Method in brief: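 Log-phase DH5α (OD600 about 0.5, 37° C, 185 rpm in LB) was pelleted, resuspended in fresh LB and seeded at 5×10^5 CFU/mL with recombinant protein at 50, 25 and 12.5 μg/mL (two-fold series), in triplicate. Plates were shaken at 175 rpm, 37° C, and OD600 was read every 30 min. MIC was the lowest concentration with no growth.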

E. coli BL21 = experiment: MIC against Gram-negative bacteria: E. coli BL21
Method in brief: (§1)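 Broth microdilution, LB medium, final inoculum 5×10^5 CFU/mL from McFarland 0.5 cultures. Recombinant human EGF domain proteins tested in two-fold steps, n=3. MIC: lowest concentration, no growth.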

Pseudomonas aeruginosa = experiment: MIC against Gram-negative bacteria: Pseudomonas aeruginosa
Method in brief: as §1

Klebsiella pneumonia = experiment: MIC against Gram-negative bacteria: Klebsiella pneumonia
Method in brief: as §1

Enterobacter cloacae = experiment: MIC against Gram-negative bacteria: Enterobacter cloacae
Method in brief: as §1

Aeromonas hydrophila = experiment: MIC against Gram-negative bacteria: Aeromonas hydrophila
Method in brief: as §1

Citrobacter diversus = experiment: MIC against Gram-negative bacteria: Citrobacter diversus
Method in brief: as §1

Moraxella catarrhalis = experiment: MIC against Gram-negative bacteria: Moraxella catarrhalis
Method in brief: as §1

Proteus mirabilis = experiment: MIC against Gram-negative bacteria: Proteus mirabilis
Method in brief: as §1

Proteus vulgaris = experiment: MIC against Gram-negative bacteria: Proteus vulgaris
Method in brief: as §1

Serratia marcescens = experiment: MIC against Gram-negative bacteria: Serratia marcescens
Method in brief: as §1

[1] = 96-well plate, 5×10^5 CFU/mL, 37° C., 10 h
[2] = E. coli BL21, 5×10^5 CFU/mL, 10 h cultivation at 37° C.
[3] = Pseudomonas aeruginosa, 5×10^5 CFU/mL, 10 h cultivation at 37° C.
[4] = Klebsiella pneumonia, 5×10^5 CFU/mL, 10 h cultivation at 37° C.
[5] = Enterobacter cloacae, 5×10^5 CFU/mL, 10 h cultivation at 37° C.
[6] = Aeromonas hydrophila, 5×10^5 CFU/mL, 10 h cultivation at 37° C.
[7] = Citrobacter diversus, 5×10^5 CFU/mL, 10 h cultivation at 37° C.
[8] = Moraxella catarrhalis, 5×10^5 CFU/mL, 10 h cultivation at 37° C.
[9] = Proteus mirabilis, 5×10^5 CFU/mL, 10 h cultivation at 37° C.
[10] = Proteus vulgaris, 5×10^5 CFU/mL, 10 h cultivation at 37° C.
[11] = Serratia marcescens, 5×10^5 CFU/mL, 10 h cultivation at 37° C.
[12] = 10 h cultivation at 37° C., 5×10^5 CFU/mL, two-fold serial dilution

Substance	MIC (E. coli DH5α)	MIC against E. coli BL21 (E. coli BL21; [1])	MIC against P. aeruginosa (Pseudomonas aeruginosa; [1])	MIC against K. pneumonia (Klebsiella pneumonia; [1])	MIC against E. cloacae (Enterobacter cloacae; [1])	MIC against A. hydrophila (Aeromonas hydrophila; [1])	MIC against C. diversus (Citrobacter diversus; [1])	MIC against M. catarrhalis (Moraxella catarrhalis; [1])	MIC against P. mirabilis (Proteus mirabilis; [1])	MIC against P. vulgaris (Proteus vulgaris; [1])	MIC against S. marcescens (Serratia marcescens; [1])	MIC against E. coli BL21 (E. coli BL21; [2])	MIC against P. aeruginosa (Pseudomonas aeruginosa; [3])	MIC against K. pneumonia (Klebsiella pneumonia; [4])	MIC against E. cloacae (Enterobacter cloacae; [5])	MIC against A. hydrophila (Aeromonas hydrophila; [6])	MIC against C. diversus (Citrobacter diversus; [7])	MIC against M. catarrhalis (Moraxella catarrhalis; [8])	MIC against P. mirabilis (Proteus mirabilis; [9])	MIC against P. vulgaris (Proteus vulgaris; [10])	also measured
PRT522 (CVCNGHAEVCNINNPEKLFRCECQHHTCGETCDRCCTGYNQRRWRPAAWEQSHECEA; listed as Homo sapiens)	25 µg/mL	50 µg/mL	25 µg/mL	12.5 µg/mL	25 µg/mL	50 µg/mL	25 µg/mL	12.5 µg/mL	25 µg/mL	50 µg/mL	25 µg/mL										
PRT1347 (NVDECLSQPCKNGATCKDGANSFRCLCAAGFTGSHCE; listed as Homo sapiens)	25 µg/mL											12.5 µg/mL	25 µg/mL	50 µg/mL	25 µg/mL	25 µg/mL	12.5 µg/mL	25 µg/mL	50 µg/mL	100 µg/mL	MIC against S. marcescens (Serratia marcescens; [11]): 12.5 µg/mL
PRT1493 (QQAECPGGCRNGGFCNERRICECPDGFHGPHCE; listed as Homo sapiens)	100 µg/mL											25 µg/mL	12.5 µg/mL	12.5 µg/mL	12.5 µg/mL	50 µg/mL	50 µg/mL	25 µg/mL	50 µg/mL	25 µg/mL	MIC against S. marcescens (Serratia marcescens; [11]): 50 µg/mL
PRT937 (DIDECISKPCMNHGLCHNTQGSYMCECPPGFSGMDCE; listed as Homo sapiens)	25 µg/mL																				MIC (E. coli BL21; E. coli BL21, 10 h cultivation at 37° C.): 12.5 µg/mL; MIC (Pseudomonas aeruginosa; P. aeruginosa, 10 h cultivation at 37° C.): 50 µg/mL; MIC (Klebsiella pneumonia; K. pneumonia, 10 h cultivation at 37° C.): 25 µg/mL; MIC (Enterobacter cloacae; E. cloacae, 10 h cultivation at 37° C.): 12.5 µg/mL; MIC (Aeromonas hydrophila; A. hydrophila, 10 h cultivation at 37° C.): 50 µg/mL; MIC (Citrobacter diversus; C. diversus, 10 h cultivation at 37° C.): 25 µg/mL; MIC (Moraxella catarrhalis; M. catarrhalis, 10 h cultivation at 37° C.): 12.5 µg/mL; MIC (Proteus mirabilis; P. mirabilis, 10 h cultivation at 37° C.): 50 µg/mL; MIC (Proteus vulgaris; P. vulgaris, 10 h cultivation at 37° C.): 12.5 µg/mL; MIC (Serratia marcescens; S. marcescens, 10 h cultivation at 37° C.): 50 µg/mL
PRT1162 (DIDDCILNACEHNSTCKDLHLSYQCVCLSDWEGNFCE; listed as Homo sapiens)	12.5 µg/mL																				MIC E. coli BL21 (E. coli BL21; [12]): 50 µg/mL; MIC P. aeruginosa (Pseudomonas aeruginosa; [12]): 12.5 µg/mL; MIC K. pneumonia (Klebsiella pneumonia; [12]): 50 µg/mL; MIC E. cloacae (Enterobacter cloacae; [12]): 12.5 µg/mL; MIC A. hydrophila (Aeromonas hydrophila; [12]): 50 µg/mL; MIC C. diversus (Citrobacter diversus; [12]): 25 µg/mL; MIC M. catarrhalis (Moraxella catarrhalis; [12]): 12.5 µg/mL; MIC P. mirabilis (Proteus mirabilis; [12]): 25 µg/mL; MIC P. vulgaris (Proteus vulgaris; [12]): 50 µg/mL; MIC S. marcescens (Serratia marcescens; [12]): 25 µg/mL
PRT546 (CDCHEAGTAPGVCDPLTGQCYCKENVQGPKCDQCSLGTFSLDAANPKGCTR; listed as Homo sapiens)	12.5 µg/mL	50 µg/mL	12.5 µg/mL	50 µg/mL	12.5 µg/mL	50 µg/mL	12.5 µg/mL	50 µg/mL	12.5 µg/mL	25 µg/mL	50 µg/mL										
